According to PMC8697381 (ACS Omega, 2021):
Where a SMILES comes first, the peptide text is derived from it.

Tested on: A431 human skin squamous cell carcinoma cells
Experiment: In vitro cellular uptake quantified by flow cytometry
Format: cell-based
Conditions: all concentrations (0.2–25 μM), 90 min, ratio of Cf-positive cells and mean fluorescence intensity

With `N=C(N)NCCC[C@H](NC(=O)[C@@H]1CCCN1C(=O)[C@H](CCC(N)=O)NC(=O)[C@H](CCCCN)NC(=O)[C@H](CC(=O)O)NC(=O)[C@@H]1CCCN1C(=O)[C@H](Cc1ccccc1)NC(=O)CNC(=O)[C@H](CCC(=O)O)NC(=O)[C@H](Cc1ccccc1)NC(=O)[C@@H](N)Cc1ccccc1)C(=O)N[C@@H](CCCCN)C(=O)N[C@@H](CCCCN)C(N)=O` [Peptide S100] (H-FFEGFPDKQPRKK-NH2) the “cellular uptake rate, comparison between peptides” value was “lowest cellular uptake rate”.
